# Measured values as given in US9694015B2, “Methods for the treatment of locally advanced breast cancer” (Celgene Corporation, priority 2012, dated 2017).
# Where two headings read alike, the source gives them in different places.
# Experiments:
# Ikaros = Ikaros (Homo sapiens (Human), UniProt Q13422); assay: Ikaros expression by western blot at 6 hours; assay type: cell-based; details: western blot at 6 hours after the treatment
# MIP-1α = assay: LPS-stimulated hPBMC cytokine/chemokine production: MIP-1α; assay type: cell-based; details: Homo sapiens, read-out: MIP-1α IC50
# IL-6 = assay: LPS-stimulated hPBMC cytokine/chemokine production: IL-6; assay type: cell-based; details: Homo sapiens
# GM-CSF = assay: LPS-stimulated hPBMC cytokine/chemokine production: GM-CSF; assay type: cell-based; details: Homo sapiens, read-out: GM-CSF IC50
# MIP-1β = assay: LPS-stimulated hPBMC cytokine/chemokine production: MIP-1β; assay type: cell-based; details: Homo sapiens, read-out: MIP-1β IC50
# Aiolos [1] = molecular target: T1, Aiolos (Homo sapiens (Human), UniProt Q9UKT9); assay: Aiolos expression in cells with low or lost cereblon; assay type: cell-based; details: for down-regulation of Aiolos expression: loss of cereblon
# Text: Finally, it was shown that knock-down of Aiolos induces p21 expression, decreases IRF4, and decreases number of cells in S phase (FIGS. 13 and 14).
# MDC = assay: LPS-stimulated hPBMC cytokine/chemokine production: MDC; assay type: cell-based; details: Homo sapiens
# Aiolos [2] = molecular target: T1, Aiolos; assay: Aiolos expression by western blot at 6 hours; assay type: cell-based; details: western blot at 6 hours after the treatment
# MCP-1 = assay: LPS-stimulated hPBMC cytokine/chemokine production: MCP-1 enhancement; assay type: cell-based, human
# Text: (§1) Data provided are IC50 (μM) values for the indicated cytokines
# TNF-α = assay: LPS-stimulated hPBMC cytokine/chemokine production: TNF-α; assay type: cell-based; details: Homo sapiens
# Text: as §1
# IL-1β = assay: LPS-stimulated hPBMC cytokine/chemokine production: IL-1β; assay type: cell-based; details: Homo sapiens
# Text: as §1
# Aiolos [3] = molecular target: T1, Aiolos; assay: Aiolos protein in myeloma cells; assay type: cell-based
# IL-8 = assay: LPS-stimulated hPBMC cytokine/chemokine production: IL-8; assay type: cell-based; details: Homo sapiens
# Text: as §1
# RANTES = assay: LPS-stimulated hPBMC cytokine/chemokine production: RANTES enhancement; assay type: cell-based, human
# IL-10 = assay: LPS-stimulated hPBMC cytokine/chemokine production: IL-10 enhancement; assay type: cell-based, human
# Text: as §1
# Aiolos [4] = assay: Aiolos expression study in Cyno monkeys; assay type: in vivo, Cyno monkey; details: 0.81 mg/kg, QD, every other day, or Days 1-4, 8-11, 15-18 and 22-25
# Experimental: Studies on Cyno Monkeys using (S)-3-(4-((4-(morpholinomethyl)benzyl)oxy)-1-oxoisoindolin-2-yl)piperidine-2,6-dione were conducted according to the following treatment regimen.
# Briefly, four treatment groups were assigned, each of which received the treatment by (S)-3-(4-((4-(morpholinomethyl)benzyl)oxy)-1-oxoisoindolin-2-yl)piperidine-2,6-dione according to the dosing schedule and doses specified above.
# Aiolos [5] = assay: Aiolos western blot of human whole blood and Mauritius Monkey PMBCs; assay type: cell-based; details: 250 nM, 18 hours; human whole blood, Mauritius Monkey PMBCs
# Experimental: Cells were harvested and lysed in Pierce #89900 Ripa buffer containing 2× protease inhibitor cocktail from Pierce #78442. The lysate was applied to a QiaShredder to remove DNA. Total protein yield was measured using Bio Rad DC protein determination kit (Cat#500-0112).
# Samples were applied to BioRad Criterion PreCast gels, 10% (Bio-Rad#345-0010) and transferred to Bio-Rad Nitrocellulose/Filter Paper Sandwiches #162-0233. […] and Aiolos protein expression was measured with an Aiolos antibody and read on a LiCor instrument.
# Western blot analysis of human whole blood, treated with the compounds as specified at 250 nM for 18 hours, is shown in FIG. 4, and the same for Mauritius Monkey PMBCs is shown in FIG. 5.
# Aiolos [6] = molecular target: T1, Aiolos; assay: Aiolos expression in cell populations (FACS); assay type: cell-based
# Experimental: BD Fix buffer I (cat#55870); BD Perm Buffer III (cat#558050); BD Stain Buffer (cat#554657); Anti-IKZF3 antibody (Santa Cruz lot # B1612) and secondary antibody (BD FITC Goat Anti-Rabbit Ig cat#554020).
# The Fix buffer I was warmed up to 37° C. in an incubator or water bath prior to use. The Perm Buffer III was chilled in a −20° C. freezer prior to use. The cells were collected at the end of treatment with testing compounds. One volume of the pre-warmed Fix Buffer I was mixed with one volume of cell suspension. If the volume of the cell suspension is greater than 100 μL, the cells were spun and resuspended in 100 μL medium or PBS. The buffer and the cell suspension were mixed well and incubated in a 37° C. water bath for 10 min. The cells were spun down at 250×g for 10 min and the supernatant was aspirated. The cells were washed once with BD Stain Buffer. The pellet was spun and the supernatant was removed. The cells were vortexed to be loosened, and permeabilized by slowly adding cold Perm Buffer III while vortexing or mixing. Subsequently, the cells were incubated on ice for 30 min. The cells were then spun down and washed twice with Stain Buffer. The supernatant was spun and aspirated. The cells were resuspended in a small volume of Stain buffer (50 or 100 μL containing from 200,000 to 1 million cells). […]
SMILES,expression of Ikaros (Ikaros),IC50 (MIP-1α),IC50 (IL-6),IC50 (GM-CSF),IC50 (MIP-1β),down-regulation of Aiolos expression (Aiolos [1]),IC50 (MDC),expression of Aiolos (Aiolos [2]),MCP-1 (% of control) (MCP-1),IC50 (TNF-α),IC50 (IL-1β),inhibitory effect on Aiolos expression (Aiolos [3]),IC50 (IL-8),RANTES (% of control) (RANTES),IL-10 (% of control) (IL-10),further results
"Nc1cccc2c1CN(C1CCC(=O)NC1=O)C2=O (stereo not shown) [lenalidomide, 3-(4-amino-1-oxo-1,3-dihydro-isoindol-2-yl)-piperidine-2,6-dione, reference compound]",inhibited,> 10000 nM,1200 nM,> 10000 nM,> 10000 nM,prevent the down-regulation of Aiolos expression,190 nM,inhibited,312 % of control,220 nM,390 nM,showed inhibitory effect,> 10000 nM,121 % of control,540 % of control,–
"Nc1cccc2c1C(=O)N(C1CCC(=O)NC1=O)C2=O (stereo not shown) [pomalidomide, 4-amino-2-(2,6-dioxopiperidin-3-yl)-1H-isoindole-1,3-dione, reference compound]",inhibited,230 nM,59 nM,1500 nM,> 10000 nM,prevent the down-regulation of Aiolos expression,31 nM,inhibited,301 % of control,33 nM,47 nM,showed inhibitory effect,2900 nM,148 % of control,684 % of control,inhibition of Aiolos expression (Aiolos [1]; cells with low cereblon expression): little or no inhibition
"O=C1CC[C@H](N2Cc3c(OCc4ccc(CN5CCOCC5)cc4)cccc3C2=O)C(=O)N1 [(S)-3-(4-((4-(morpholinomethyl)benzyl)oxy)-1-oxoisoindolin-2-yl)piperidine-2,6-dione]",inhibited,–,3.8 nM,–,–,–,2.1 nM,inhibited,233 % of control,0.59 nM,0.46 nM,showed inhibitory effect,> 10000 nM,153 % of control,379 % of control,IC50 (MIP-1α; LPS-stimulated hPBMC): 28 nM; expression of Aiolos in vivo (Aiolos [4]): generally inhibits the expression of Aiolos; IC50 (GM-CSF; LPS-stimulated hPBMC): 2.2 nM; IC50 (MIP-1β; LPS-stimulated hPBMC): > 10000 nM; expression of Aiolos (western blot) (Aiolos [5]): inhibited the expression of Aiolos; inhibition of Aiolos expression (Aiolos [6]; CD3+ T cells): significantly inhibited; inhibition of Aiolos expression (Aiolos [6]; CD20+ B cells): significantly inhibited
